The structures appear in SMILES notation.

By IC50 is commonly meant the concentration that gives 50% inhibition. The low end stands for greater potency in that assay, the high end for weaker potency in that assay.

This test concerns the target CD73 (Homo sapiens (Human), UniProt P21589). In words: Biochemical assay: inhibition of CD73 activity (AMP hydrolysis, Malachite Green readout). The conditions noted are these: CD73 0.3208 nM, AMP 15 μM, 25 mM Tris-HCl pH 7.4, RT, absorbance 620 nm. The gist of the method: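 Phosphate from AMP hydrolysis (15 μM AMP, 10 min, RT) was detected by Malachite Green absorbance to give IC50s. Enzyme at 320 pM was first exposed 15 min to compounds, dosed from 100 μM in ½-log steps, in Tris pH 7.4 buffer with MgCl2, Brij-35 and BSA.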

CD73, sequence (P21589 27-574): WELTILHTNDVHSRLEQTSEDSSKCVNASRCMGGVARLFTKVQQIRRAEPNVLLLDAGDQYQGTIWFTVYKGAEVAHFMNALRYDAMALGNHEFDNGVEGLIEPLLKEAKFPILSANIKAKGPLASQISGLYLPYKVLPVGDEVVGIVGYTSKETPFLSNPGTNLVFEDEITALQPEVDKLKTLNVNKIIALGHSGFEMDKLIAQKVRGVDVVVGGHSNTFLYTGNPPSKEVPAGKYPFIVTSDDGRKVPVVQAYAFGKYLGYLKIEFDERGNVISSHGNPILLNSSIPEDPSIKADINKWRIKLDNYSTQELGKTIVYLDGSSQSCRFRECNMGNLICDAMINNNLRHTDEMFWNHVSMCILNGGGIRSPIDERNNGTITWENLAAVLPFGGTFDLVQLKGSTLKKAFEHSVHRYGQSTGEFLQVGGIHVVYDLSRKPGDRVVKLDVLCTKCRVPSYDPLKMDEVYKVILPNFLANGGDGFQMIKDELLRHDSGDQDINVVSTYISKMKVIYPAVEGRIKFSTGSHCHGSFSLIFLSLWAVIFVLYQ

As to `CC(CO)(OC[C@H]1O[C@@H](n2nnc3c(NC4CCCC4)cc(Cl)nc32)[C@H](O)[C@@H]1O)P(=O)(O)O` (stereo partly drawn) [Example 66, (2-(((2R,3S,4R,5R)-5-(5-chloro-7-(cyclopentylamino)-3H-[1,2,3]triazolo[4,5-b]pyridin-3-yl)-3,4-dihydroxytetrahydrofuran-2-yl)methoxy)-1-hydroxypropan-2-yl)phosphonic acid], the half-maximal inhibitory concentration (IC50) was not above 100 nM.

`CCS(=O)(=O)C[C@@](C)(OC[C@H]1O[C@@H](n2ncc3c(NC4CCCC4)nc(Cl)nc32)[C@H](O)[C@@H]1O)P(=O)(O)O` [Example 138, ((S)-2-(((2R,3S,4R,5R)-5-(6-chloro-4-(cyclopentylamino)-1H-pyrazolo[3,4-d]pyrimidin-1-yl)-3,4-dihydroxytetrahydrofuran-2-yl)methoxy)-1-(ethylsulfonyl)propan-2-yl)phosphonic acid]: the IC50 was not above 100 nM.

In turn, `COC[C@](C)(OC[C@H]1O[C@@H](n2ncc3c(NC4CCCC4)nc(Cl)nc32)[C@H](O)[C@@H]1O)P(=O)(O)O` [Example 69, ((R)-2-(((2R,3S,4R,5R)-5-(6-chloro-4-(cyclopentylamino)-1H-pyrazolo[3,4-d]pyrimidin-1-yl)-3,4-dihydroxytetrahydrofuran-2-yl)methoxy)-1-methoxypropan-2-yl)phosphonic acid] displayed an IC50 not above 100 nM.

In the case of `CC#CC[C@](CO)(OC[C@H]1O[C@@H](n2ncc3c(NC4CCCC4)nc(Cl)nc32)[C@H](O)[C@@H]1O)P(=O)(O)O` [Example 98, ((S)-2-(((2R,3S,4R,5R)-5-(6-chloro-4-(cyclopentylamino)-1H-pyrazolo[3,4-d]pyrimidin-1-yl)-3,4-dihydroxytetrahydrofuran-2-yl)methoxy)-1-hydroxyhex-4-yn-2-yl)phosphonic acid], the IC50 is not above 100 nM.

Turning to `O=P(O)(O)C(CCO)S(=O)(=O)C[C@H]1O[C@@H](n2ncc3c(NC4CCCC4)nc(Cl)nc32)[C@H](O)[C@@H]1O` (stereo partly drawn) [Example 34, (1-((((2S,3S,4R,5R)-5-(6-chloro-4-(cyclopentylamino)-1H-pyrazolo[3,4-d]pyrimidin-1-yl)-3,4-dihydroxytetrahydrofuran-2-yl)methyl)sulfonyl)-3-hydroxypropyl)phosphonic acid], the IC50 was in the range of 100 to 1000 nM.

The molecule `C[C@](CS(C)(=O)=O)(OC[C@H]1O[C@@H](n2ncc3c(NC4CCCC4)nc(Cl)nc32)[C@H](O)[C@@H]1O)P(=O)(O)O` [Example 73, ((S)-2-(((2R,3S,4R,5R)-5-(6-chloro-4-(cyclopentylamino)-1H-pyrazolo[3,4-d]pyrimidin-1-yl)-3,4-dihydroxytetrahydrofuran-2-yl)methoxy)-1-(methyslulfonyl)propan-2-yl)phosphonic acid] showed an IC50 not above 100 nM.

In the case of `O=P(O)(O)C(CO)OC[C@H]1O[C@@H](n2nnc3c(NC4CCCC4)cc(Cl)nc32)[C@H](O)[C@@H]1O` (stereo partly drawn) [Example 60, (1-(((2R,3S,4R,5R)-5-(5-chloro-7-(cyclopentylamino)-3H-[1,2,3]triazolo[4,5-b]pyridin-3-yl)-3,4-dihydroxytetrahydrofuran-2-yl)methoxy)-2-hydroxyethyl)phosphonic acid], the 50% inhibitory concentration (IC50) is not above 100 nM.

Take `C[C@@](CO)(OC[C@H]1O[C@@H](n2ncc3c(NC4CCCC4)cc(Cl)nc32)[C@H](O)[C@@H]1O)P(=O)(O)O` (racemic) [Example 194, rac-((R)-2-(((2R,3S,4R,5R)-5-(6-chloro-4-(cyclopentylamino)-1H-pyrazolo[3,4-b]pyridin-1-yl)-3,4-dihydroxytetrahydrofuran-2-yl)methoxy)-1-hydroxypropan-2-yl)phosphonic acid]: the half-maximal inhibitory concentration (IC50) was not above 100 nM.

Molecule `O=P(O)(O)C(CO)(CO)OC[C@H]1O[C@@H](n2ncc3c(N[C@@H]4CCCc5ccccc54)nc(Cl)nc32)[C@H](O)[C@@H]1O` (racemic) [Example 189, rac-(2-(((2R,3S,4R,5R)-5-(6-chloro-4-(((R)-1,2,3,4-tetrahydronaphthalen-1-yl)amino)-1H-pyrazolo[3,4-d]pyrimidin-1-yl)-3,4-dihydroxytetrahydrofuran-2-yl)methoxy)-1,3-dihydroxypropan-2-yl)phosphonic acid] yielded an IC50 not above 100 nM.

`Cn1cnc(CC(CO)(OC[C@H]2O[C@@H](n3ncc4c(NC5CCCC5)nc(Cl)nc43)[C@H](O)[C@@H]2O)P(=O)(O)O)c1` (stereo partly drawn) [Example 94, (2-(((2R,3S,4R,5R)-5-(6-chloro-4-(cyclopentylamino)-1H-pyrazolo[3,4-d]pyrimidin-1-yl)-3,4-dihydroxytetrahydrofuran-2-yl)methoxy)-1-hydroxy-3-(1-methyl-1H-imidazol-4-yl)propan-2-yl)phosphonic acid] had a half-maximal inhibitory concentration (IC50) of 100 to 1000 nM.

`O=P(O)(O)C(CO)(CO)OC[C@H]1O[C@@H](n2ncc3c(N[C@@H]4CCc5cc(F)ccc54)nc(Cl)nc32)[C@H](O)[C@@H]1O` (racemic) [Example 176, rac-(2-(((2R,3S,4R,5R)-5-(6-chloro-4-(((R)-5-fluoro-2,3-dihydro-1H-inden-1-yl)amino)-1H-pyrazolo[3,4-d]pyrimidin-1-yl)-3,4-dihydroxytetrahydrofuran-2-yl)methoxy)-1,3-dihydroxypropan-2-yl)phosphonic acid] came in with an IC50 not above 100 nM.

`COCC(C)(OC[C@H]1O[C@@H](n2cnc3c(NC4CCCC4)nc(Cl)nc32)[C@H](O)[C@@H]1O)P(=O)(O)O` (stereo partly drawn) [Example 158, (2-(((2R,3S,4R,5R)-5-(2-chloro-6-(cyclopentylamino)-9H-purin-9-yl)-3,4-dihydroxytetrahydrofuran-2-yl)methoxy)-1-methoxypropan-2-yl)phosphonic acid] returned an IC50 not above 100 nM.

Molecule `COCC(C)(OC[C@H]1O[C@H](n2nnc3c(N[C@@H]4CCc5ccccc54)nc(Cl)nc32)[C@H](O)[C@@H]1O)P(=O)(O)O` (stereo partly drawn) [Example 154, (2-(((2R,3S,4R,5S)-5-(5-chloro-7-(((R)-2,3-dihydro-1H-inden-1-yl)amino)-3H-[1,2,3]triazolo[4,5-d]pyrimidin-3-yl)-3,4-dihydroxytetrahydrofuran-2-yl)methoxy)-1-methoxypropan-2-yl)phosphonic acid] returned an IC50 not above 100 nM.

In turn, `O=P(O)(O)[C@@](CO)(COCC1CC1)OC[C@H]1O[C@@H](n2ncc3c(NC4CCCC4)nc(Cl)nc32)[C@H](O)[C@@H]1O` (racemic) [Example 171, rac-((R)-2-(((2S,3R,4S,5S)-5-(6-chloro-4-(cyclopentylamino)-1H-pyrazolo[3,4-d]pyrimidin-1-yl)-3,4-dihydroxytetrahydrofuran-2-yl)methoxy)-1-(cyclopropylmethoxy)-3-hydroxypropan-2-yl)phosphonic acid] registered an IC50 not above 100 nM.

On to `O=P(O)(O)C(CO)OC[C@H]1O[C@@H](n2ncc3c(NC4CCCC4)nc(Cl)nc32)[C@H](O)[C@@H]1O` (stereo partly drawn) [Example 13, (1-(((2R,3S,4R,5R)-5-(6-chloro-4-(cyclopentylamino)-1H-pyrazolo[3,4-d]pyrimidin-1-yl)-3,4-dihydroxytetrahydrofuran-2-yl)methxoy)-2-hydroxyethyl)phosphonic acid], for which the IC50 was not above 100 nM.

`CC(C)(O)C#Cc1nc(NC2CCCC2)c2cnn([C@@H]3O[C@H](COC(C)(CO)P(=O)(O)O)[C@@H](O)[C@H]3O)c2n1` (mixture of isomers) [Example 192, rac-(2-(((2R,3S,4R,5R)-5-(4-(cyclopentylamino)-6-(3-hydroxy-3-methylbut-1-yn-1-yl)-1H-pyrazolo[3,4-d]pyrimidin-1-yl)-3,4-dihydroxytetrahydrofuran-2-yl)methoxy)-1-hydroxypropan-2-yl)phosphonic acid] showed a half-maximal inhibitory concentration (IC50) not above 100 nM.

`O=C1CC(OC[C@H]2O[C@@H](n3ncc4c(NC5CCCC5)nc(Cl)nc43)[C@H](O)[C@@H]2O)(P(=O)(O)O)CO1` (mixture of isomers) [Example 186, rac-(3-(((2R,3S,4R,5R)-5-(6-chloro-4-(cyclopentylamino)-1H-pyrazolo[3,4-d]pyrimidin-1-yl)-3,4-dihydroxytetrahydrofuran-2-yl)methoxy)-5-oxotetrahydrofuran-3-yl)phosphonic acid] showed a half-maximal inhibitory concentration (IC50) not above 100 nM.

Values taken from patent US11325938B2, “CD73 inhibitors” (ORIC Pharmaceuticals, Inc., priority 2018, dated 2022).
